Earlier results on 1 substance are cited in patent US9406119B2, “Estimating pharmacokinetic parameters in imaging” (INVICRO, LLC, priority 2010, dated 2016).

Data set [1] deals with T1, αvβ3 (Homo sapiens, UniProt P05106+P06756). As to conditions: parameter obtained from the literature.
The target in data set [2] is T1, αvβ3. As to conditions: parameter obtained from the literature. This is another data set of the same source.
For data set [3] the following is noted: in vivo.

T1 sequence (P06756 31-889 limits assumed): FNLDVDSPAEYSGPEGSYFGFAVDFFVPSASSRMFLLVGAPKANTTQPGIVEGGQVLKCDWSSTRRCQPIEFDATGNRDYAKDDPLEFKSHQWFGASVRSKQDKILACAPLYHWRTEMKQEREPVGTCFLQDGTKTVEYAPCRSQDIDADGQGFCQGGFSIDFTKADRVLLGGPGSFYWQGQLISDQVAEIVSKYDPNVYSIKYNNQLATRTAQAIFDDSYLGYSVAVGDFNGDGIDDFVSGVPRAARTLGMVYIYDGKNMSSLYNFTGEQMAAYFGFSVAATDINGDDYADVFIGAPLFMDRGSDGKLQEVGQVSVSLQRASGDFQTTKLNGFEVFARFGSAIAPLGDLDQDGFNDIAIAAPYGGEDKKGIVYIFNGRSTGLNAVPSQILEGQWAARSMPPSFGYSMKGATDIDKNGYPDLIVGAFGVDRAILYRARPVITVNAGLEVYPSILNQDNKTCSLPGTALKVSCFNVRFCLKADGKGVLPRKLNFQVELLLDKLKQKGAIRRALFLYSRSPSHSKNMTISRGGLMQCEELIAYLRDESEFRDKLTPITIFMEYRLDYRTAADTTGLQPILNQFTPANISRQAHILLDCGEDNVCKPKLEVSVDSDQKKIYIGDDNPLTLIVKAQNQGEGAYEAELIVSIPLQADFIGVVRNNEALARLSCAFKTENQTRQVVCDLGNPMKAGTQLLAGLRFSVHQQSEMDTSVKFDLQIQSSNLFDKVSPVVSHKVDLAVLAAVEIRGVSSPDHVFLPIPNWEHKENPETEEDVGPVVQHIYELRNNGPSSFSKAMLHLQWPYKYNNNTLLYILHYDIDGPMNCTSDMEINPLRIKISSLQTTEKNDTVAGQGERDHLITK
T1 sequence (P06756 891-1048 partner limits assumed): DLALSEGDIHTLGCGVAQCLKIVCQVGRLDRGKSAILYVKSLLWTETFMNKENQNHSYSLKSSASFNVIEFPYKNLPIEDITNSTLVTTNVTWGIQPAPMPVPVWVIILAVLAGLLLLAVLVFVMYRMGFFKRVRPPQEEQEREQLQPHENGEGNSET
T1 sequence (P05106 27-788): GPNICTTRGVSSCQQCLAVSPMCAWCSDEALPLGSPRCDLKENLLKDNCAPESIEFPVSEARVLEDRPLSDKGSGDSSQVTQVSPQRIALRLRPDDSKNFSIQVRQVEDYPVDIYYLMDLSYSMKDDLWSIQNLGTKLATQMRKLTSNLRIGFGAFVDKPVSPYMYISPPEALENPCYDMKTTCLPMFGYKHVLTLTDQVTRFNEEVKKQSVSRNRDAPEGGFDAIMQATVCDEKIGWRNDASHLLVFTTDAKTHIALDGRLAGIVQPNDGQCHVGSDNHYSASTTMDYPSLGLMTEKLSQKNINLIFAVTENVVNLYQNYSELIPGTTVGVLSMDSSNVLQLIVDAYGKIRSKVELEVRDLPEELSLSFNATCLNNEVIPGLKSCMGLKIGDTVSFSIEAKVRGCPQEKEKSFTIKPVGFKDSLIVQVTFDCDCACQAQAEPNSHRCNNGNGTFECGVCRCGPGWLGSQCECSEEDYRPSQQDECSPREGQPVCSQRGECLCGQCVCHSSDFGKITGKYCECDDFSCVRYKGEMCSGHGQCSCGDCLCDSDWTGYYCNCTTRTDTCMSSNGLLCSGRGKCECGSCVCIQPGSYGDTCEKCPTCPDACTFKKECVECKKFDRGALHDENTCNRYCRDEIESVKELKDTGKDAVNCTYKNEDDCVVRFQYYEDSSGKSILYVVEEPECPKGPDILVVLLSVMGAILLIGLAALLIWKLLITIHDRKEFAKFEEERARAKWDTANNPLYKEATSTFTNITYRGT

In the case of ^18F-galacto-RGD [^18F-galacto RGD], at αvβ3 [1], the “koff (CA/antigen dissociation rate constant)” value was 0.0008 s⁻¹ and the “kon (CA/antigen association rate constant)” value is on record as 10^5 M^−1s^−1. The Kd at αvβ3 [1] (read-out: KD=koff/kon) was 8 nM. Moreover, on αvβ3 [2], the “ke,B (internalization rate constant of the CA/antigen bound complex)” value is 1.48e-05 s⁻¹ and the “kresid (rate of release of CA or CA signal from the intracellular compartment)” value is 1.6e-05 s⁻¹. In addition, in data set [3], the “A (fraction of fast phase of plasma clearance)” value was 0.82, the “B (fraction of slow phase of plasma clearance)” value is on record as 0.18, the “α (fast plasma clearance rate constant)” value is 0.0026 s⁻¹ and the “β (slow plasma clearance rate constant)” value was 0.00014 s⁻¹.
